Experimental findings from patent US20250214991A1 (Oncopia Therapeutics, Inc. d/b/a/ SK Life Science Labs, priority 2022, published 2025) are described below.

Experiment [1] has as its target IKZF1 (Homo sapiens (Human), UniProt Q13422+Q96SW2). Put plainly: In vitro IKZF1 HiBit Assay (HEK293T Flp-in-HiBiT-IKZF1 stable cell line). It counts as cell-based. The note with it: HEK293T Flp-in-HiBiT-IKZF1 stable cell line, 6 hrs incubation; for DC50: read-out: IKZF1 HiBit DC50; for Dmax: HEK-293T, read-out: IKZF1 HiBit Dmax (%). A digest of the protocol: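 Degradation was measured as loss of luminescence from the HiBiT-IKZF1 tag after 6 h compound treatment, with 0.1% final DMSO, in stable HEK293T Flp-in cells. Values were normalized to DMSO, giving the 50% degradation concentration and the maximal degradation range.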
On the technique in general: The HiBiT peptide binds its large partner to form an active luciferase.

Experiment [2] has as its target CRBN/DDB1 (Homo sapiens (Human), UniProt Q96SW2). The experiment in a line: IC50 measurements for binding to CRBN/DDB1 (HTRF). Conditions: His tagged CRBN+DDB, Cy5-labeled Thalidomide probe, one hour. As for the experimental part:
In vitro Assay: IC50 Measurements for binding to CRBN/DDB1 (Table E1)
The binding potency was determined using HTRF assay technology (Perkin Elmer). Compounds were serially diluted in DMSO and 0.2 μL volume was transferred to white 384-well plate. The reaction was conducted in total volume of 20 μL with addition of 2 nM His tagged CRBN+DDB−DLS7+CXU4 (Wuxi, catalogue #RP210521GA) to compounds followed by addition of 60 nM Fluorescent probe Cy5-labeled Thalidomide (Tenova Pharma, catalogue #T52461), and 0.4 nM of MAb Anti-6HIS Tb cryptate Gold (Cisbio, catalogue #61HI2TLA in the assay buffer (50 mM HEPES pH 7.5, 1 mM TCEP, 0.01% Brij-35, 50 mM NaCl, and 0.1% BSA). After one hour incubation at room temperature, the HTRF signals were read on Envision reader (Perkin Elemer). Data was analyzed using XLfit using four parameters dose response curve to determine IC50s. A: IC50<0.1 μM; B: 0.1 μM<IC50<[…]; C: 0.5 μM<IC50<1 μM; D: 1 μM<IC50<5 μM; E: 5 μM<IC50<10 μM

Experiment [3] addresses IKZF2 (Homo sapiens (Human), UniProt Q96SW2+Q9UKS7). The experiment in a line: In vitro IKZF2 HiBit Assay (HEK293T Flp-in-HiBiT cells). It counts as cell-based. The note with it: HEK293T Flp-in-HiBiT cells, 6 hrs incubation; for DC50: read-out: IKZF2 HiBit DC50; for Dmax: HEK-293T, read-out: IKZF2 HiBit Dmax (%). The method, boiled down: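 Remaining tagged Helios was read as lytic HiBiT/LgBiT luminescence normalized to DMSO, yielding binned DC50 and Dmax values. Treatment ran 6 h, with compounds at 11 three-fold doses diluted from 1 mM and 0.1% final DMSO. The cells were HEK293T Flp-in with CRISPR knock-in of HiBiT at the IKZF2 N-terminus.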

Chain of IKZF2 (Q9UKS7 whole entry): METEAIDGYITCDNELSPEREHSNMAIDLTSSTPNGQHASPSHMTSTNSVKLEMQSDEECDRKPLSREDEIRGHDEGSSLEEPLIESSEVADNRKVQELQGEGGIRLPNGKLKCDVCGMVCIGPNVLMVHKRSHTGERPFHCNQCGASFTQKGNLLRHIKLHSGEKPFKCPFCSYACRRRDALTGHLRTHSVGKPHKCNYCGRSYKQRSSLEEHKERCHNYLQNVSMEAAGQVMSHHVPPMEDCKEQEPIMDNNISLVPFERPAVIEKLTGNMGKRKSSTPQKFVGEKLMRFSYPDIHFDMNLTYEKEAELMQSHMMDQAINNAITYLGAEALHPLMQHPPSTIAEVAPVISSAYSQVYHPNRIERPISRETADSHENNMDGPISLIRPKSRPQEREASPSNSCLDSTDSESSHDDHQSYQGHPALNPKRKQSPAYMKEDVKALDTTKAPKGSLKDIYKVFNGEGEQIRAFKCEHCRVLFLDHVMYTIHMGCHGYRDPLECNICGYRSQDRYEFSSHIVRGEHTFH
Chain of IKZF2 (Q96SW2 whole entry): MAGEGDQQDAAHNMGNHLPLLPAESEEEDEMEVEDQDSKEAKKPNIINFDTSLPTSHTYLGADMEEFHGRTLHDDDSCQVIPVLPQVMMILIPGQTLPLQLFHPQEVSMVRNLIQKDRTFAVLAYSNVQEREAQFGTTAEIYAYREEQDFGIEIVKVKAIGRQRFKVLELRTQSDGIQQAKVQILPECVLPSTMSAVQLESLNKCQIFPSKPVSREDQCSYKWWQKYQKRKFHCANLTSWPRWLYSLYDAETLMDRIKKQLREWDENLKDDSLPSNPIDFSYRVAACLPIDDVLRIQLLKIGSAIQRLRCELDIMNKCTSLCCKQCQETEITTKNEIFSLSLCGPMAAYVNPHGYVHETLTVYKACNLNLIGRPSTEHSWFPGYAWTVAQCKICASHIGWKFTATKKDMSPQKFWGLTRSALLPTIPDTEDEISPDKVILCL
Chain of IKZF2 (Q16531 2-1140 partner): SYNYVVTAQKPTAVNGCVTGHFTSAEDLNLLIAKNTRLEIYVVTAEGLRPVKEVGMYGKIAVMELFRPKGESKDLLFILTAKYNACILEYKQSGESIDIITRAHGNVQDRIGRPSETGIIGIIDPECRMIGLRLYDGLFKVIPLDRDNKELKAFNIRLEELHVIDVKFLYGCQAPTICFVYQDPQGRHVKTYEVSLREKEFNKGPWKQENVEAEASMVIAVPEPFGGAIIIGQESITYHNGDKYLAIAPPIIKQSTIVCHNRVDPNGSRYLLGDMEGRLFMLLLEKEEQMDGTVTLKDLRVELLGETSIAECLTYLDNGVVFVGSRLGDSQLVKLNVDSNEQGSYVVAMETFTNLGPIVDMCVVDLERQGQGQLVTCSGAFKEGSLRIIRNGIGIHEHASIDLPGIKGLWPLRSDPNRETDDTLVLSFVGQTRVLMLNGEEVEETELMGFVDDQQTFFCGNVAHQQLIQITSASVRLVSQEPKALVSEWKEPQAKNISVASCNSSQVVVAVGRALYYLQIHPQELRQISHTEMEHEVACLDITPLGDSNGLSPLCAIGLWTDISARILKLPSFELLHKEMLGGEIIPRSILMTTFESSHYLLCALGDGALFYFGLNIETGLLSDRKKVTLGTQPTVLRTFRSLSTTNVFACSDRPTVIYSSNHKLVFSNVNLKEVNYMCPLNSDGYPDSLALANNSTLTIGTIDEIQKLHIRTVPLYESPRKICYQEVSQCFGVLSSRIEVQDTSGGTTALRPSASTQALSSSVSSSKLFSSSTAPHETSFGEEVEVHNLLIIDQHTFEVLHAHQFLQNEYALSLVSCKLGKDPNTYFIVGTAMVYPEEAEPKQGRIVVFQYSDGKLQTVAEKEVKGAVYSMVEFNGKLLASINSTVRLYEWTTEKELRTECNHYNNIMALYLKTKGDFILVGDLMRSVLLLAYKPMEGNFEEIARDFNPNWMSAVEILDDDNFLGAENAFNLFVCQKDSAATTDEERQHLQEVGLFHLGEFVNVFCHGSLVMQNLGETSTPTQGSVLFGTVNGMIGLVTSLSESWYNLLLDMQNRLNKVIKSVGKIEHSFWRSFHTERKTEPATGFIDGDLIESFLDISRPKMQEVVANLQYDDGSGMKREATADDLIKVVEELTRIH
Chain of IKZF1 (Q13422 whole entry): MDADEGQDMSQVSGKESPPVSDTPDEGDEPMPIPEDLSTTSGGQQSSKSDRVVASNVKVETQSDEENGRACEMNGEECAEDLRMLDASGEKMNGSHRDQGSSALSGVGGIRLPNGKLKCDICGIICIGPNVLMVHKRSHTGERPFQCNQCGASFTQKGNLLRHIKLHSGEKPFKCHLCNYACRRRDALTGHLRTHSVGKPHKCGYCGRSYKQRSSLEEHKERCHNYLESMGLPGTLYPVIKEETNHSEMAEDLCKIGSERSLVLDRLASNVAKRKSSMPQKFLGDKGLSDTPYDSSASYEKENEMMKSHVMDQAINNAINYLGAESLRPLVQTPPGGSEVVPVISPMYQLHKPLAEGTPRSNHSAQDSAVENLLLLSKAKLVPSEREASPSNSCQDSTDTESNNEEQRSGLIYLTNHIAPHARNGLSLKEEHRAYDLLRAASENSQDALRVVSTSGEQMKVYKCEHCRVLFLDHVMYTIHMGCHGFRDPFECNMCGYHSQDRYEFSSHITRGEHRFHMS
Chain of IKZF1 (Q96SW2 whole entry): as the sequence (Q96SW2 whole entry) above
Chain of IKZF1 (Q16531 2-1140 partner): as the sequence (Q16531 2-1140 partner) above
Chain of CRBN/DDB1 (Q96SW2 whole entry, species assumed): as the sequence (Q96SW2 whole entry) above
Chain of CRBN/DDB1 (Q16531 whole entry partner, species assumed): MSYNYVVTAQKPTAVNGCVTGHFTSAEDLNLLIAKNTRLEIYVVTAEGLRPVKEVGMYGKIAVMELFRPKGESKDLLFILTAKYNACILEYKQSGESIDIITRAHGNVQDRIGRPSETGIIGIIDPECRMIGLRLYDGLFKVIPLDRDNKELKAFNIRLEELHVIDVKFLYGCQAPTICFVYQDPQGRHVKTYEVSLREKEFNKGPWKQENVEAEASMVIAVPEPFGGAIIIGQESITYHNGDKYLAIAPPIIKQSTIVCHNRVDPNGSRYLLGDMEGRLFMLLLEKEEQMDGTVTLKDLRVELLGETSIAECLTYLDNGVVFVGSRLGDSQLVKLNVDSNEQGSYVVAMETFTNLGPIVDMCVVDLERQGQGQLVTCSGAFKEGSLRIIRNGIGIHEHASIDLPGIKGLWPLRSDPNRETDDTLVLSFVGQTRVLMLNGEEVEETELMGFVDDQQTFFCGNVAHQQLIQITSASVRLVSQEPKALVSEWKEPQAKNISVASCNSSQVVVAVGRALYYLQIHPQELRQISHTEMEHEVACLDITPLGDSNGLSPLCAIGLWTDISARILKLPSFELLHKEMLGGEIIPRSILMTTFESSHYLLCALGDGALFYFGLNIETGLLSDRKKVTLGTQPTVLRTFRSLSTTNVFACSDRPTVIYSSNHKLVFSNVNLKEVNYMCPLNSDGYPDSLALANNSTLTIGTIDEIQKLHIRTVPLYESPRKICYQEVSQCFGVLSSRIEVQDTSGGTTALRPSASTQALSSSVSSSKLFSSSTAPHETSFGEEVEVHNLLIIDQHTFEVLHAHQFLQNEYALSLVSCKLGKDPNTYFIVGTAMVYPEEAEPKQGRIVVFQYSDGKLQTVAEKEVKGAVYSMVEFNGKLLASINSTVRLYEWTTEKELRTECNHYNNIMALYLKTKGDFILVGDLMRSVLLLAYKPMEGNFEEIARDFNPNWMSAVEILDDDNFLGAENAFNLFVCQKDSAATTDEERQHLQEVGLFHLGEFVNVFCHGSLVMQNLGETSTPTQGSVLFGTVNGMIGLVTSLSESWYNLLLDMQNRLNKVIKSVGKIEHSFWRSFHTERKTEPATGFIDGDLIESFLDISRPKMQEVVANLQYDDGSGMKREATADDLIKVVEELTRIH

For orientation: IC50 means the midpoint of a concentration-inhibition curve. A low value points to greater potency in that assay. Regarding `Cn1ccc2c(CN3CCC(F)CC3)cc(-c3ccc4c(c3)CN(C3CCC(=O)NC3=O)C4=O)nc21` (stereo not drawn) [Example 301, 3-(5-(4-((4-fluoropiperidin-1-yl)methyl)-1-methyl-1H-pyrrolo[2,3-b]pyridin-6-yl)-1-oxoisoindolin-2-yl) piperidine-2,6-dione], in experiment [1], the DC50 is 10 to 100 nM and the Dmax is 20 to 40%. The compound also showed an IC50 in experiment [2] of 1000 to 5000 nM. Also, in experiment [3], the DC50 was < 1 nM and the Dmax is > 80%.
For `O=C1CCC(N2Cc3cc(-c4cc(CN5CCC(CO)C5)c5ccn(C6CC6)c5n4)ccc3C2=O)C(=O)N1` (stereo not drawn) [Example 155, 3-(5-(1-cyclopropyl-4-((3-(hydroxymethyl)pyrrolidin-1-yl)methyl)-1H-pyrrolo[2,3-b]pyridin-6-yl)-1-oxoisoindolin-2-yl) piperidine-2,6-dione] the same measures were 10 to 100 nM, 20 to 40%, 100 to 500 nM, 1 to 10 nM and > 80%.
On to `O=C1CCC(N2Cc3cc(-c4cc(CN5CCC(O)C5)c5cc[nH]c5n4)ccc3C2=O)C(=O)N1` (stereo not drawn) [Example 120, 3-(5-(4-((3-hydroxypyrrolidin-1-yl)methyl)-1H-pyrrolo[2,3-b]pyridin-6-yl)-1-oxoisoindolin-2-yl) piperidine-2,6-dione], for which, in experiment [1], the DC50 is 100 to 1000 nM and the Dmax was in the range of 20 to 40%. In experiment [2], this compound yielded an IC50 of 100 to 500 nM. Besides, in experiment [3], the DC50 was 10 to 100 nM and the Dmax is > 80%.
For `O=C1CCC(N2Cc3cc(-c4cc(CN5CCCC5)c5cc[nH]c5n4)ccc3C2=O)C(=O)N1` (stereo not drawn) [Example 59, 3-(1-oxo-5-(4-(pyrrolidin-1-ylmethyl)-1H-pyrrolo[2,3-b]pyridin-6-yl)isoindolin-2-yl) piperidine-2,6-dione] the same measures were > 10000 nM, 20 to 40%, 100 to 500 nM, 1 to 10 nM and > 80%.
For `Cc1nc2c(CN3CCCC3)cc(-c3ccc4c(c3)CN(C3CCC(=O)NC3=O)C4=O)nc2o1` (stereo not drawn) [Example 197, 3-(5-(2-methyl-7-(pyrrolidin-1-ylmethyl)oxazolo [5,4-b]pyridin-5-yl)-1-oxoisoindolin-2-yl) piperidine-2,6-dione] the same measures were > 10000 nM, < 20%, 500 to 1000 nM, 1 to 10 nM and 60 to 80%.
With `Cn1ccc2c(N3CCCC3)cc(-c3ccc4c(c3)CN(C3CCC(=O)NC3=O)C4=O)nc21` (stereo not drawn) [Example 114, 3-(5-(1-methyl-4-(pyrrolidin-1-yl)-1H-pyrrolo[2,3-b]pyridin-6-yl)-1-oxoisoindolin-2-yl) piperidine-2,6-dione], the DC50 in experiment [1] was > 10000 nM; in experiment [3], 10 to 100 nM. Besides, the Dmax in experiment [1] is < 20%; in experiment [3], 20 to 40%. For the same compound, the IC50 in experiment [2] was in the range of 1000 to 5000 nM.
Taken in the same sequence, the figures for `O=C1CCC(N2Cc3cc(-c4cc(CN5CCCC5)c5c(n4)C(=O)NC5)ccc3C2=O)C(=O)N1` (stereo not drawn) [Example 233, 3-(1-ox0-5-(7-oxo-4-(pyrrolidin-1-ylmethyl)-6,7-dihydro-5H-pyrrolo[3,4-b]pyridin-2-yl)isoindolin-2-yl) piperidine-2,6-dione] were > 10000 nM, > 10000 nM, < 20%, < 20% and 1000 to 5000 nM.
Taken in the same sequence, the figures for `Cn1ccc2c(CN3CC4COCC(C4)C3)cc(-c3ccc4c(c3)CN(C3CCC(=O)NC3=O)C4=O)nc21` (stereo not drawn) [Example 70, 3-(5-(4-((3-oxa-7-azabicyclo[3.3.1]nonan-7-yl)methyl)-1-methyl-1H-pyrrolo[2,3-b]pyridin-6-yl)-1-oxoisoindolin-2-yl) piperidine-2,6-dione] were > 10000 nM, 1 to 10 nM, < 20%, > 80% and 1000 to 5000 nM.
Taken in the same sequence, the figures for `CN1CC(n2ccc3c(CN4CCCC4)cc(-c4ccc5c(c4)CN(C4CCC(=O)NC4=O)C5=O)nc32)C1` (stereo not drawn) [Example 169, 3-(5-(1-(1-methylazetidin-3-yl)-4-(pyrrolidin-1-ylmethyl)-1H-pyrrolo[2,3-b]pyridin-6-yl)-1-oxoisoindolin-2-yl) piperidine-2,6-dione] were 10 to 100 nM, 1 to 10 nM, 40 to 60%, > 80% and < 100 nM.
`Cn1ccc2nc(-c3ccc4c(c3)CN(C3CCC(=O)NC3=O)C4=O)cc(CN3CCCC3)c21` (stereo not drawn) [Example 77, 3-(5-(1-methyl-7-(pyrrolidin-1-ylmethyl)-1H-pyrrolo[3,2-b]pyridin-5-yl)-1-oxoisoindolin-2-yl) piperidine-2,6-dione]: the DC50 in experiment [1] is > 10000 nM; in experiment [3], < 1 nM. The Dmax in experiment [1] is 20 to 40%; in experiment [3], > 80%. Moreover, the IC50 in experiment [2] lay within 1000 to 5000 nM.
Taken in the same sequence, the figures for `Nc1n[nH]c2c(CN3CCC3)cc(-c3ccc4c(c3)CN(C3CCC(=O)NC3=O)C4=O)nc12` (stereo not drawn) [Example 208, 3-(5-(3-amino-7-(azetidin-1-ylmethyl)-1H-pyrazolo[4,3-b]pyridin-5-yl)-1-oxoisoindolin-2-yl) piperidine-2,6-dione] were > 10000 nM, 100 to 1000 nM, < 20%, 60 to 80% and < 100 nM.
`C[C@@H]1CC[C@@H](C)N1Cc1cc(-c2ccc3c(c2)CN(C2CCC(=O)NC2=O)C3=O)nc2c1ccn2C` (stereo partly drawn) [Example 108, 3-(5-(4-(((2R,5R)-2,5-dimethylpyrrolidin-1-yl)methyl)-1-methyl-1H-pyrrolo[2,3-b]pyridin-6-yl)-1-oxoisoindolin-2-yl) piperidine-2,6-dione]: the figures for the DC50 in experiment [1] and in experiment [3] were > 10000 nM and 1 to 10 nM, respectively. Further, the figures for the Dmax in experiment [1] and in experiment [3] were < 20% and 60 to 80%, respectively. In experiment [2], this compound gave an IC50 of 500 to 1000 nM.
Taken in the same sequence, the figures for `O=C1CCC(N2Cc3cc(-c4cc(CN5CC(CO)C5)c5ccn(C6COC6)c5n4)ccc3C2=O)C(=O)N1` (stereo not drawn) [Example 165, 3-(5-(4-((3-(hydroxymethyl)azetidin-1-yl)methyl)-1-(oxetan-3-yl)-1H-pyrrolo[2,3-b]pyridin-6-yl)-1-oxoisoindolin-2-yl) piperidine-2,6-dione] were > 10000 nM, 10 to 100 nM, < 20%, 60 to 80% and 100 to 500 nM.
For `O=C1CCC(N2Cc3cc(-c4cc(CN5CCCC5)c5ncccc5n4)ccc3C2=O)C(=O)N1` (stereo not drawn) [Example 104, 3-(1-oxo-5-(4-(pyrrolidin-1-ylmethyl)-1,5-naphthyridin-2-yl)isoindolin-2-yl) piperidine-2,6-dione] the same measures were > 10000 nM, 1 to 10 nM, 20 to 40%, > 80% and 500 to 1000 nM.
For the compound `Cn1ccc2c(CN3CCC3c3ccccc3)cc(-c3ccc4c(c3)CN(C3CCC(=O)NC3=O)C4=O)nc21` (stereo not drawn) [Example 71, 3-(5-(1-methyl-4-((2-phenylazetidin-1-yl)methyl)-1H-pyrrolo[2,3-b]pyridin-6-yl)-1-oxoisoindolin-2-yl) piperidine-2,6-dione], in experiment [1], the DC50 was > 10000 nM and the Dmax was in the range of 20 to 40%. This compound registered an IC50 in experiment [2] of 100 to 500 nM. Besides, in experiment [3], the DC50 lay within 1 to 10 nM and the Dmax was > 80%.
